# Publication PMC6639057 (Investigational new drugs, 2018)
# “And” between values parts separate entries of the source, which are not always exact repeats. Equal values may be shown once.
# Test system: patients with advanced solid tumors
# Experiment: Adverse events
# [1] = all patients, dose escalation and dose expansion (N = 105)
# [2] = escalation 30 mg + G-CSF (n = 6)
# [3] = escalation 35 mg + G-CSF (n = 3)
compound,measurement,setting,value
Cc1csc(-c2nnc(Nc3ccc(Oc4ncccc4-c4ccnc(N)n4)cc3)c3ccccc23)c1 [AMG 900],AEs leading to discontinuation of AMG 900,Total (N = 105),25 (24) n (%)
same,All treatment-emergent AEs,Total (N = 105),105 (100) n (%)
same,All treatment-related AEs,Total (N = 105),98 (93) n (%)
same,Fatal AEs,Total (N = 105),5 (5) n (%)
same,Grade ≥ 3 AEs,Total (N = 105),79 (75) n (%)
same,Grade ≥ 3 treatment-related AEs,Total (N = 105),61 (58) n (%)
same,Grade ≥ 3 treatment-related AEs: Anemia,Total (N = 105),24 (23) n (%)
same,Grade ≥ 3 treatment-related AEs: Diarrhea,Total (N = 105),4 (4) n (%)
same,Grade ≥ 3 treatment-related AEs: Fatigue,Total (N = 105),5 (5) n (%)
same,Grade ≥ 3 treatment-related AEs: Febrile neutropenia,Total (N = 105),10 (10) n (%)
same,Grade ≥ 3 treatment-related AEs: Hemoglobin decreased,Total (N = 105),4 (4) n (%)
same,Grade ≥ 3 treatment-related AEs: Leukopenia,Total (N = 105),15 (14) n (%)
same,Grade ≥ 3 treatment-related AEs: Lymphopenia,Total (N = 105),4 (4) n (%)
same,Grade ≥ 3 treatment-related AEs: Nausea,Total (N = 105),3 (3) n (%)
same,Grade ≥ 3 treatment-related AEs: Neutropenia,Total (N = 105),44 (42) n (%)
same,Grade ≥ 3 treatment-related AEs: Thrombocytopenia,Total (N = 105),13 (12) n (%)
same,Grade ≥ 3 treatment-related AEs: Vomiting,Total (N = 105),2 (2) n (%)
same,Grade ≥ 3 treatment-related AEs: White blood cell count decreased,Total (N = 105),2 (2) n (%)
same,Grade ≥ 4 AEs,Total (N = 105),40 (38) n (%)
same,Serious AEs,Total (N = 105),39 (37) n (%)
same,Treatment-related AEs that led to discontinuation of AMG 900,all patients (13 patients),12%
same,Treatment-related grade ≥ 4 AEs,all patients (31 patients),30%
same,Dose reductions or interruptions due to AEs,all patients (47 patients),45%
same,Dose reductions or interruptions,all patients (51 patients),49%
same,Treatment-related grade ≥ 3 AEs,all patients (61 patients),58%
same,Fatal AEs,all patients (five patients),5%
same,Grade ≥ 4 diarrhea (only nonhematologic grade ≥ 4 AE),all patients (n = 1),1%
same,Treatment-related grade ≥ 4 leukopenia,all patients (n = 12),11%
same,Discontinuation of AMG 900 due to AEs,"all patients (n = 25), data cutoff December 31, 2014",24%
same,Treatment-related grade ≥ 4 neutropenia,all patients (n = 30),29%
same,Grade ≥ 3 treatment-related anemia,[1],23%
same,Grade ≥ 3 treatment-related leukopenia,[1],14%
same,Grade ≥ 3 treatment-related neutropenia,[1],37% and 42%
same,Grade ≥ 3 treatment-related thrombocytopenia,[1],12%
same,Relation of fatal AEs to treatment,as judged by the investigator,none of the fatal AEs were considered treatment related
same,AEs leading to discontinuation of AMG 900,escalation 16 mg (n = 3),0 n (%)
same,All treatment-emergent AEs,escalation 16 mg (n = 3),3 (100) n (%)
same,All treatment-related AEs,escalation 16 mg (n = 3),3 (100) n (%)
same,Fatal AEs,escalation 16 mg (n = 3),0 n (%)
same,Grade ≥ 3 AEs,escalation 16 mg (n = 3),1 (33) n (%)
same,Grade ≥ 3 treatment-related AEs,escalation 16 mg (n = 3),1 (33) n (%)
same,Grade ≥ 3 treatment-related AEs: Anemia,escalation 16 mg (n = 3),1 (33) n (%)
same,Grade ≥ 3 treatment-related AEs: Diarrhea,escalation 16 mg (n = 3),0 n (%)
same,Grade ≥ 3 treatment-related AEs: Fatigue,escalation 16 mg (n = 3),0 n (%)
same,Grade ≥ 3 treatment-related AEs: Febrile neutropenia,escalation 16 mg (n = 3),0 n (%)
same,Grade ≥ 3 treatment-related AEs: Hemoglobin decreased,escalation 16 mg (n = 3),0 n (%)
same,Grade ≥ 3 treatment-related AEs: Leukopenia,escalation 16 mg (n = 3),1 (33) n (%)
same,Grade ≥ 3 treatment-related AEs: Lymphopenia,escalation 16 mg (n = 3),0 n (%)
same,Grade ≥ 3 treatment-related AEs: Nausea,escalation 16 mg (n = 3),0 n (%)
same,Grade ≥ 3 treatment-related AEs: Neutropenia,escalation 16 mg (n = 3),1 (33) n (%)
same,Grade ≥ 3 treatment-related AEs: Thrombocytopenia,escalation 16 mg (n = 3),0 n (%)
same,Grade ≥ 3 treatment-related AEs: Vomiting,escalation 16 mg (n = 3),0 n (%)
same,Grade ≥ 3 treatment-related AEs: White blood cell count decreased,escalation 16 mg (n = 3),0 n (%)
same,Grade ≥ 4 AEs,escalation 16 mg (n = 3),1 (33) n (%)
same,Serious AEs,escalation 16 mg (n = 3),0 n (%)
same,AEs leading to discontinuation of AMG 900,escalation 24 mg (n = 6),1 (17) n (%)
same,All treatment-emergent AEs,escalation 24 mg (n = 6),6 (100) n (%)
same,All treatment-related AEs,escalation 24 mg (n = 6),5 (83) n (%)
same,Fatal AEs,escalation 24 mg (n = 6),0 n (%)
same,Grade ≥ 3 AEs,escalation 24 mg (n = 6),5 (83) n (%)
same,Grade ≥ 3 treatment-related AEs,escalation 24 mg (n = 6),5 (83) n (%)
same,Grade ≥ 3 treatment-related AEs: Anemia,escalation 24 mg (n = 6),0 n (%)
same,Grade ≥ 3 treatment-related AEs: Diarrhea,escalation 24 mg (n = 6),0 n (%)
same,Grade ≥ 3 treatment-related AEs: Fatigue,escalation 24 mg (n = 6),0 n (%)
same,Grade ≥ 3 treatment-related AEs: Febrile neutropenia,escalation 24 mg (n = 6),0 n (%)
same,Grade ≥ 3 treatment-related AEs: Hemoglobin decreased,escalation 24 mg (n = 6),0 n (%)
same,Grade ≥ 3 treatment-related AEs: Leukopenia,escalation 24 mg (n = 6),2 (33) n (%)
same,Grade ≥ 3 treatment-related AEs: Lymphopenia,escalation 24 mg (n = 6),1 (17) n (%)
same,Grade ≥ 3 treatment-related AEs: Nausea,escalation 24 mg (n = 6),0 n (%)
same,Grade ≥ 3 treatment-related AEs: Neutropenia,escalation 24 mg (n = 6),4 (67) n (%)
same,Grade ≥ 3 treatment-related AEs: Thrombocytopenia,escalation 24 mg (n = 6),0 n (%)
same,Grade ≥ 3 treatment-related AEs: Vomiting,escalation 24 mg (n = 6),0 n (%)
same,Grade ≥ 3 treatment-related AEs: White blood cell count decreased,escalation 24 mg (n = 6),0 n (%)
same,Grade ≥ 4 AEs,escalation 24 mg (n = 6),3 (50) n (%)
same,Serious AEs,escalation 24 mg (n = 6),1 (17) n (%)
same,AEs leading to discontinuation of AMG 900,escalation 25 mg (n = 7),2 (29) n (%)
same,All treatment-emergent AEs,escalation 25 mg (n = 7),7 (100) n (%)
same,All treatment-related AEs,escalation 25 mg (n = 7),5 (71) n (%)
same,Fatal AEs,escalation 25 mg (n = 7),1 (14) n (%)
same,Grade ≥ 3 AEs,escalation 25 mg (n = 7),3 (43) n (%)
same,Grade ≥ 3 treatment-related AEs,escalation 25 mg (n = 7),2 (29) n (%)
same,Grade ≥ 3 treatment-related AEs: Anemia,escalation 25 mg (n = 7),2 (29) n (%)
same,Grade ≥ 3 treatment-related AEs: Diarrhea,escalation 25 mg (n = 7),0 n (%)
same,Grade ≥ 3 treatment-related AEs: Fatigue,escalation 25 mg (n = 7),0 n (%)
same,Grade ≥ 3 treatment-related AEs: Febrile neutropenia,escalation 25 mg (n = 7),0 n (%)
same,Grade ≥ 3 treatment-related AEs: Hemoglobin decreased,escalation 25 mg (n = 7),1 (14) n (%)
same,Grade ≥ 3 treatment-related AEs: Leukopenia,escalation 25 mg (n = 7),1 (14) n (%)
same,Grade ≥ 3 treatment-related AEs: Lymphopenia,escalation 25 mg (n = 7),0 n (%)
same,Grade ≥ 3 treatment-related AEs: Nausea,escalation 25 mg (n = 7),0 n (%)
same,Grade ≥ 3 treatment-related AEs: Neutropenia,escalation 25 mg (n = 7),1 (14) n (%)
same,Grade ≥ 3 treatment-related AEs: Thrombocytopenia,escalation 25 mg (n = 7),0 n (%)
same,Grade ≥ 3 treatment-related AEs: Vomiting,escalation 25 mg (n = 7),0 n (%)
same,Grade ≥ 3 treatment-related AEs: White blood cell count decreased,escalation 25 mg (n = 7),0 n (%)
same,Grade ≥ 4 AEs,escalation 25 mg (n = 7),2 (29) n (%)
same,Serious AEs,escalation 25 mg (n = 7),1 (14) n (%)
same,AEs leading to discontinuation of AMG 900,escalation 30 mg (n = 6),4 (67) n (%)
same,All treatment-emergent AEs,escalation 30 mg (n = 6),6 (100) n (%)
same,All treatment-related AEs,escalation 30 mg (n = 6),6 (100) n (%)
same,Fatal AEs,escalation 30 mg (n = 6),0 n (%)
same,Grade ≥ 3 AEs,escalation 30 mg (n = 6),6 (100) n (%)
same,Grade ≥ 3 treatment-related AEs,escalation 30 mg (n = 6),4 (67) n (%)
same,Grade ≥ 3 treatment-related AEs: Anemia,escalation 30 mg (n = 6),0 n (%)
same,Grade ≥ 3 treatment-related AEs: Diarrhea,escalation 30 mg (n = 6),0 n (%)
same,Grade ≥ 3 treatment-related AEs: Fatigue,escalation 30 mg (n = 6),0 n (%)
same,Grade ≥ 3 treatment-related AEs: Febrile neutropenia,escalation 30 mg (n = 6),0 n (%)
same,Grade ≥ 3 treatment-related AEs: Hemoglobin decreased,escalation 30 mg (n = 6),0 n (%)
same,Grade ≥ 3 treatment-related AEs: Leukopenia,escalation 30 mg (n = 6),3 (50) n (%)
same,Grade ≥ 3 treatment-related AEs: Lymphopenia,escalation 30 mg (n = 6),0 n (%)
same,Grade ≥ 3 treatment-related AEs: Nausea,escalation 30 mg (n = 6),0 n (%)
same,Grade ≥ 3 treatment-related AEs: Neutropenia,escalation 30 mg (n = 6),4 (67) n (%)
same,Grade ≥ 3 treatment-related AEs: Thrombocytopenia,escalation 30 mg (n = 6),1 (17) n (%)
same,Grade ≥ 3 treatment-related AEs: Vomiting,escalation 30 mg (n = 6),0 n (%)
same,Grade ≥ 3 treatment-related AEs: White blood cell count decreased,escalation 30 mg (n = 6),0 n (%)
same,Grade ≥ 4 AEs,escalation 30 mg (n = 6),6 (100) n (%)
same,Serious AEs,escalation 30 mg (n = 6),3 (50) n (%)
same,AEs leading to discontinuation of AMG 900,[2],1 (17) n (%)
same,All treatment-emergent AEs,[2],6 (100) n (%)
same,All treatment-related AEs,[2],6 (100) n (%)
same,Fatal AEs,[2],0 n (%)
same,Grade ≥ 3 AEs,[2],5 (83) n (%)
same,Grade ≥ 3 treatment-related AEs,[2],3 (50) n (%)
same,Grade ≥ 3 treatment-related AEs: Anemia,[2],1 (17) n (%)
same,Grade ≥ 3 treatment-related AEs: Diarrhea,[2],0 n (%)
same,Grade ≥ 3 treatment-related AEs: Fatigue,[2],0 n (%)
same,Grade ≥ 3 treatment-related AEs: Febrile neutropenia,[2],0 n (%)
same,Grade ≥ 3 treatment-related AEs: Hemoglobin decreased,[2],0 n (%)
same,Grade ≥ 3 treatment-related AEs: Leukopenia,[2],2 (33) n (%)
same,Grade ≥ 3 treatment-related AEs: Lymphopenia,[2],0 n (%)
same,Grade ≥ 3 treatment-related AEs: Nausea,[2],0 n (%)
same,Grade ≥ 3 treatment-related AEs: Neutropenia,[2],3 (50) n (%)
same,Grade ≥ 3 treatment-related AEs: Thrombocytopenia,[2],2 (33) n (%)
same,Grade ≥ 3 treatment-related AEs: Vomiting,[2],0 n (%)
same,Grade ≥ 3 treatment-related AEs: White blood cell count decreased,[2],0 n (%)
same,Grade ≥ 4 AEs,[2],2 (33) n (%)
same,Serious AEs,[2],3 (50) n (%)
same,AEs leading to discontinuation of AMG 900,[3],0 n (%)
same,All treatment-emergent AEs,[3],3 (100) n (%)
